In patent US20200325177A1, “METHODS OF MAKING STREPTOGRAMIN COMPOSITIONS AND THE USE THEREOF” (THE REGENTS OF THE UNIVERSITY OF CALIFORNIA, priority 2017, published 2020):
≈ marks a conversion by molar mass, not a printed value. Read-outs that look alike come from different tables or passages of the source.

Experiments:
Type in all cases: cell-based
[1] = system: S. aureus Linezolid-resistant; cfr; test: MIC, Gram-positive bacteria: S. aureus Linezolid-resistant; cfr; conditions: Staphylococcus aureus, column 9, read-out: Minimal Inhibitory Concentration (MIC) S. aureus Linezolid-resistant
S. aureus = test: MIC, Gram-positive bacteria: S. aureus (strains not named); conditions: Staphylococcus aureus, read-out: Minimal Inhibitory Concentration (MIC) S. aureus
E. faecium VRE; vanA = test: MIC, Gram-positive bacteria: E. faecium VRE; vanA; conditions: Enterococcus faecium, column 3, read-out: Minimal Inhibitory Concentration (MIC) E. faecium VRE
[2] = system: P. aeruginosa MDR clinical isolate; test: MIC, Gram-negative bacteria: P. aeruginosa MDR clinical isolate; conditions: Pseudomonas aeruginosa, read-out: Minimal Inhibitory Concentration (MIC) P. aeruginosa MDR clinical isolate
E. faecium ATCC 35667 = test: MIC, Gram-positive bacteria: E. faecium ATCC 35667; conditions: Enterococcus faecium, ATCC35667, column 2, read-out: Minimal Inhibitory Concentration (MIC) E. faecium ATCC 35667
[3] = system: S. aureus Vat A streptogramin; test: MIC, Gram-positive bacteria: S. aureus Vat A streptogramin; conditions: Staphylococcus aureus; Gram-positive; column 5; read-out: Minimal Inhibitory Concentration (MIC) S. aureus Vat A streptogramin
[4] = system: K. pneumoniae multidrug-resistant; test: MIC, Gram-negative bacteria: K. pneumoniae multidrug-resistant; conditions: Klebsiella pneumoniae, read-out: Minimal Inhibitory Concentration (MIC) K. pneumoniae multidrug-resistant
Gram-Negative Organisms = test: microbe, parasite or virus in culture
H. influenzae ATCC 49247 = test: MIC, Gram-negative bacteria: H. influenzae ATCC 49247; conditions: Haemophilus influenzae, ATCC49247, read-out: Minimal Inhibitory Concentration (MIC) H. influenzae ATCC 49247
S. pneumoniae = test: MIC, Gram-positive bacteria: S. pneumoniae; conditions: Streptococcus pneumoniae, column 10, read-out: Minimal Inhibitory Concentration (MIC) S. pneumoniae
E. faecalis = test: MIC, Gram-positive bacteria: E. faecalis; conditions: Enterococcus faecalis, column 1, read-out: Minimal Inhibitory Concentration (MIC) E. faecalis
P. aeruginosa ATCC 27853 = test: MIC, Gram-negative bacteria: P. aeruginosa ATCC 27853; conditions: Pseudomonas aeruginosa, ATCC27853, read-out: Minimal Inhibitory Concentration (MIC) P. aeruginosa ATCC 27853
[5] = first unnamed S. aureus column (c4)
[6] = fourth unnamed S. aureus column (c8)
[7] = second unnamed S. aureus column (c6)
[8] = third unnamed S. aureus column (c7)
[9] = Acinetobacter baumannii, ATCC19606, read-out: Minimal Inhibitory Concentration (MIC), A. baumannii ATCC 19606
[10] = Escherichia coli, ATCC25922, read-out: Minimal Inhibitory Concentration (MIC), E. coli ATCC 25922
[11] = Escherichia coli, read-out: Minimal Inhibitory Concentration (MIC), E. coli BAS2006, OMP C, OMP F
[12] = Escherichia coli, read-out: Minimal Inhibitory Concentration (MIC), E. coli olC efflux defective
[13] = Escherichia coli, read-out: Minimal Inhibitory Concentration (MIC), E. coli permeability mutant BAS1314, IMP4213ZAB::TN10
[14] = Klebsiella pneumoniae, ATCC43816, read-out: Minimal Inhibitory Concentration (MIC), K. pneumoniae ATCC 43816

Row | SMILES | MIC [1] | MIC (S. aureus; [5]) | MIC (S. aureus; [6]) | MIC (S. aureus; [7]) | MIC (S. aureus; [8]) | MIC (E. faecium VRE; vanA) | MIC [2] | MIC (E. faecium ATCC 35667) | MIC [3] | MIC [4] | MIC (Gram-Negative Organisms; [9]) | MIC (Gram-Negative Organisms; [10]) | MIC (Gram-Negative Organisms; [11]) | MIC (Gram-Negative Organisms; [12]) | MIC (Gram-Negative Organisms; [13]) | MIC (Gram-Negative Organisms; [14]) | MIC (H. influenzae ATCC 49247) | MIC (S. pneumoniae) | MIC (E. faecalis) | MIC (P. aeruginosa ATCC 27853)
1 | CC1=C\[C@@H](O)CC(=O)Cc2nc(co2)C(=O)N2CCC[C@@H]2C(=O)O[C@H]([C@@H](C)CO)[C@H](C)/C=C/C(=O)NC\C=C\1 [SA0110026] | > 64 µg/mL | > 64 µg/mL | > 64 µg/mL | > 64 µg/mL | > 64 µg/mL | > 64 µg/mL | > 64 µg/mL | 64 µg/mL (≈ 118 µM) | > 64 µg/mL | > 64 µg/mL | > 64 µg/mL | > 64 µg/mL | 64 µg/mL (≈ 118 µM) | 32 µg/mL (≈ 58.9 µM) | 64 µg/mL (≈ 118 µM) | > 64 µg/mL | 64 µg/mL (≈ 118 µM) | 64 µg/mL (≈ 118 µM) | > 64 µg/mL | > 64 µg/mL
2 | CC1=C\[C@@H](O)CC(=O)Cc2nc(co2)C(=O)N2CCC[C@@H]2C(=O)O[C@H]([C@@H](C)COC(=O)Nc2ccc(F)cc2)[C@H](C)/C=C/C(=O)NC\C=C\1 [SA0110036] | > 64 µg/mL | 32 µg/mL (≈ 47 µM) | 16 µg/mL (≈ 23.5 µM) | 32 µg/mL (≈ 47 µM) | > 64 µg/mL | 32 µg/mL (≈ 47 µM) | > 64 µg/mL | 8 µg/mL (≈ 11.8 µM) | > 64 µg/mL | > 64 µg/mL | > 64 µg/mL | > 64 µg/mL | 8 µg/mL (≈ 11.8 µM) | 2 µg/mL (≈ 2.94 µM) | 8 µg/mL (≈ 11.8 µM) | > 64 µg/mL | > 64 µg/mL | 16 µg/mL (≈ 23.5 µM) | > 64 µg/mL | > 64 µg/mL
3 | CC1=C\[C@@H](O)CC(=O)Cc2nc(co2)C(=O)N2CCC[C@@H]2C(=O)O[C@H]([C@@H](C)COC(=O)Nc2ccc(C)cc2)[C@H](C)/C=C/C(=O)NC\C=C\1 [SA0110037] | > 64 µg/mL | 32 µg/mL (≈ 47.3 µM) | 16 µg/mL (≈ 23.6 µM) | 32 µg/mL (≈ 47.3 µM) | 64 µg/mL (≈ 94.6 µM) | 64 µg/mL (≈ 94.6 µM) | > 64 µg/mL | 16 µg/mL (≈ 23.6 µM) | > 64 µg/mL | > 64 µg/mL | > 64 µg/mL | > 64 µg/mL | 16 µg/mL (≈ 23.6 µM) | 4 µg/mL (≈ 5.91 µM) | 8 µg/mL (≈ 11.8 µM) | > 64 µg/mL | > 64 µg/mL | 16 µg/mL (≈ 23.6 µM) | > 64 µg/mL | > 64 µg/mL
4 | COc1ccc(NC(=O)OC[C@H](C)[C@H]2OC(=O)[C@H]3CCCN3C(=O)c3coc(n3)CC(=O)C[C@H](O)/C=C(C)/C=C/CNC(=O)/C=C/[C@H]2C)cc1 [SA0110040] | > 64 µg/mL | 32 µg/mL (≈ 46.2 µM) | 16 µg/mL (≈ 23.1 µM) | 32 µg/mL (≈ 46.2 µM) | 64 µg/mL (≈ 92.4 µM) | 64 µg/mL (≈ 92.4 µM) | > 64 µg/mL | 16 µg/mL (≈ 23.1 µM) | > 64 µg/mL | > 64 µg/mL | > 64 µg/mL | > 64 µg/mL | 16 µg/mL (≈ 23.1 µM) | 2 µg/mL (≈ 2.89 µM) | 8 µg/mL (≈ 11.5 µM) | > 64 µg/mL | 16 µg/mL (≈ 23.1 µM) | 16 µg/mL (≈ 23.1 µM) | > 64 µg/mL | > 64 µg/mL
5 | CC1=C\[C@@H](O)CC(=O)Cc2nc(co2)C(=O)N2CCC[C@@H]2C(=O)O[C@H]([C@@H](C)COC(=O)Nc2ccc(OC(F)(F)F)cc2)[C@H](C)/C=C/C(=O)NC\C=C\1 [SA0110041] | > 64 µg/mL | > 64 µg/mL | 32 µg/mL (≈ 42.9 µM) | > 64 µg/mL | > 64 µg/mL | > 64 µg/mL | > 64 µg/mL | 8 µg/mL (≈ 10.7 µM) | > 64 µg/mL | > 64 µg/mL | > 64 µg/mL | > 64 µg/mL | > 64 µg/mL | 8 µg/mL (≈ 10.7 µM) | 8 µg/mL (≈ 10.7 µM) | > 64 µg/mL | > 64 µg/mL | > 64 µg/mL | > 64 µg/mL | > 64 µg/mL
6 | CC1=C\[C@@H](O)CC(=O)Cc2nc(co2)C(=O)N2CCC[C@@H]2C(=O)O[C@H]([C@@H](C)COC(=O)Nc2ccccc2)[C@H](C)/C=C/C(=O)NC\C=C\1 [SA0110043] | > 64 µg/mL | 32 µg/mL (≈ 48.3 µM) | 32 µg/mL (≈ 48.3 µM) | 32 µg/mL (≈ 48.3 µM) | 64 µg/mL (≈ 96.6 µM) | 64 µg/mL (≈ 96.6 µM) | > 64 µg/mL | 16 µg/mL (≈ 24.1 µM) | > 64 µg/mL | > 64 µg/mL | > 64 µg/mL | > 64 µg/mL | 16 µg/mL (≈ 24.1 µM) | 2 µg/mL (≈ 3.02 µM) | 8 µg/mL (≈ 12.1 µM) | > 64 µg/mL | 32 µg/mL (≈ 48.3 µM) | 16 µg/mL (≈ 24.1 µM) | > 64 µg/mL | > 64 µg/mL
7 | CC1=C\[C@@H](O)CC(=O)Cc2nc(co2)C(=O)N2CCC[C@@H]2C(=O)O[C@H]([C@@H](C)COC(=O)Nc2ccc(C(F)(F)F)cc2)[C@H](C)/C=C/C(=O)NC\C=C\1 [SA0110044] | > 64 µg/mL | > 64 µg/mL | 32 µg/mL (≈ 43.8 µM) | > 64 µg/mL | > 64 µg/mL | > 64 µg/mL | > 64 µg/mL | 16 µg/mL (≈ 21.9 µM) | > 64 µg/mL | > 64 µg/mL | > 64 µg/mL | > 64 µg/mL | > 64 µg/mL | 16 µg/mL (≈ 21.9 µM) | 16 µg/mL (≈ 21.9 µM) | > 64 µg/mL | > 64 µg/mL | > 64 µg/mL | > 64 µg/mL | > 64 µg/mL
8 | CC1=C\[C@@H](O)CC(=O)Cc2nc(co2)C(=O)N2CCC[C@@H]2C(=O)O[C@H]([C@@H](C)COC(=O)Nc2cccnc2)[C@H](C)/C=C/C(=O)NC\C=C\1 [SA0110067] | > 64 µg/mL | > 64 µg/mL | 64 µg/mL (≈ 96.4 µM) | > 64 µg/mL | > 64 µg/mL | > 64 µg/mL | > 64 µg/mL | 32 µg/mL (≈ 48.2 µM) | > 64 µg/mL | > 64 µg/mL | > 64 µg/mL | > 64 µg/mL | 64 µg/mL (≈ 96.4 µM) | 8 µg/mL (≈ 12.1 µM) | 32 µg/mL (≈ 48.2 µM) | > 64 µg/mL | > 64 µg/mL | 32 µg/mL (≈ 48.2 µM) | > 64 µg/mL | > 64 µg/mL
